Test results from patent US12565494B2, “Inhibitors of human respiratory syncytial virus and metapneumovirus” (priority 2022, dated 2026).
Where two headings read alike, the source gives them in different places.

Columns and labels:
RSV-A2-GFP virus = assay: microbe, parasite or virus in culture; type: cell-based, Human Respiratory Syncytial Virus; conditions: Calu-1 cells, RSV-A2-GFP MOI=1.2, 96 hrs, GFP-expressing cells counted
Summary of the method: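 Assay-ready frozen Calu-1 cells (20,000 cells/mL) were infected with RSV-A2-GFP at MOI 1.2 in DMEM with 2% FBS and exposed to a 10-point 3-fold compound dilution for 96 h at 37 °C. GFP-positive cells were counted by imaging, with same-well CellTiter-Glo for cytotoxicity. IC50 and CC50 came from 4-parameter logistic fits.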

hMPV-GFP virus = assay: microbe, parasite or virus in culture; type: cell-based, Human Metapneumovirus; conditions: VERO cells, hMPV-GFP MOI=1.25, 48 hrs, GFP-expressing cells counted
Summary of the method: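 VERO cells infected with GFP-expressing hMPV at MOI 1.25 and exposed to compound in 10-point 3-fold dilutions (typical final 40,300–2 nM) for 48 h at 37 °C. GFP-positive cells counted by imaging; same-well CellTiter-Glo for cytotoxicity. IC50 and CC50 from 4-parameter logistic fits.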

[1] = human respiratory syncytial virus, Calu-1, 96 h, read-out: RSV EC50, Table I Summary of Activities for RSV
[2] = Vero, 48 h, read-out: RSV EC50, Table II Summary of Activities for hMPV
[3] = Table I Summary of Activities for RSV, read-out: RSV EC50
[4] = Table II Summary of Activities for hMPV, read-out: RSV EC50

`Cn1nc(-c2ncco2)cc1C(=O)N1C[C@@H]2[C@H](C1)[C@H]2Oc1cc(C(C)(C)N)cc(-c2ccc(F)cc2)n1` [Example 17, ((1R,5S,6s)-6-((4-(2-aminopropan-2-yl)-6-(4-fluorophenyl)pyridin-2-yl)oxy)-3-azabicyclo[3.1.0]hexan-3-yl)(1-methyl-3-(oxazol-2-yl)-1H-pyrazol-5-yl)methanone] gave an EC50 (RSV-A2-GFP virus; [1]) of less than 10 nM and an EC50 (hMPV-GFP virus; [2]) of 10 to 100 nM.
For `Cn1nc(-c2cscn2)cc1C(=O)N1C[C@@H]2[C@H](C1)[C@H]2Oc1cc(C(C)(C)N)cc(-c2ccc(F)cc2)n1` [Example 18, ((1R,5S,6s)-6-((4-(2-aminopropan-2-yl)-6-(4-fluorophenyl)pyridin-2-yl)oxy)-3-azabicyclo[3.1.0]hexan-3-yl)(1-methyl-3-(thiazol-4-yl)-1H-pyrazol-5-yl)methanone], the EC50 (RSV-A2-GFP virus; [1]) was less than 10 nM and the EC50 (hMPV-GFP virus; [2]) was 10 to 100 nM.
`CCn1nc(-c2cscn2)cc1C(=O)N1C[C@@H]2[C@H](C1)[C@H]2Oc1cc(C(C)(C)N)cc(-c2ccc(F)cc2)n1` [Example 19, ((1R,5S,6s)-6-((4-(2-aminopropan-2-yl)-6-(4-fluorophenyl)pyridin-2-yl)oxy)-3-azabicyclo[3.1.0]hexan-3-yl)(1-ethyl-3-(thiazol-4-yl)-1H-pyrazol-5-yl)methanone] gave an EC50 (RSV-A2-GFP virus; [1]) of less than 10 nM and an EC50 (hMPV-GFP virus; [2]) of 10 to 100 nM.
In the case of `Cn1nc(-c2ncsc2F)cc1C(=O)N1C[C@@H]2[C@H](C1)[C@H]2Oc1cc(C(C)(C)N)cc(-c2ccc(F)cc2)n1` [Example 20, ((1R,5S,6s)-6-((4-(2-aminopropan-2-yl)-6-(4-fluorophenyl)pyridin-2-yl)oxy)-3-azabicyclo[3.1.0]hexan-3-yl)(3-(5-fluorothiazol-4-yl)-1-methyl-1H-pyrazol-5-yl)methanone], the EC50 (RSV-A2-GFP virus; [1]) is reported as less than 10 nM and the EC50 (hMPV-GFP virus; [2]) is reported as 10 to 100 nM.
`Cn1nc(-c2ccon2)cc1C(=O)N1C[C@@H]2[C@H](C1)[C@H]2Oc1cc(C(C)(C)N)cc(-c2ccc(F)cc2)n1` [Example 21, ((1R,5S,6s)-6-((4-(2-aminopropan-2-yl)-6-(4-fluorophenyl)pyridin-2-yl)oxy)-3-azabicyclo[3.1.0]hexan-3-yl)(3-(isoxazol-3-yl)-1-methyl-1H-pyrazol-5-yl)methanone] was tested, and the EC50 (RSV-A2-GFP virus; [1]) was less than 10 nM and the EC50 (hMPV-GFP virus; [2]) was greater than 100 nM.
`Cc1cnc(-c2cc(C(=O)N3C[C@@H]4[C@H](C3)[C@H]4Oc3cc(C(C)(C)N)cc(-c4ccc(F)cc4)n3)n(C)n2)o1` [Example 22, ((1R,5S,6s)-6-((4-(2-aminopropan-2-yl)-6-(4-fluorophenyl)pyridin-2-yl)oxy)-3-azabicyclo[3.1.0]hexan-3-yl)(1-methyl-3-(5-methyloxazol-2-yl)-1H-pyrazol-5-yl)methanone] was tested, and the EC50 (RSV-A2-GFP virus; [3]) was less than 10 nM and the EC50 (hMPV-GFP virus; [4]) was 10 to 100 nM.
`Cn1nc(-c2nccs2)cc1C(=O)N1C[C@@H]2[C@H](C1)[C@H]2Oc1cc(C(C)(C)N)cc(-c2ccc(F)cc2)n1` [Example 23, ((1R,5S,6s)-6-((4-(2-aminopropan-2-yl)-6-(4-fluorophenyl)pyridin-2-yl)oxy)-3-azabicyclo[3.1.0]hexan-3-yl)(1-methyl-3-(thiazol-2-yl)-1H-pyrazol-5-yl)methanone] was tested, and the EC50 (RSV-A2-GFP virus; [3]) was less than 10 nM and the EC50 (hMPV-GFP virus; [4]) was greater than 100 nM.
For `Cc1nc(-c2cc(C(=O)N3C[C@@H]4[C@H](C3)[C@H]4Oc3cc(C(C)(C)N)cc(-c4ccc(F)cc4)n3)n(C)n2)cs1` [Example 24, ((1R,5S,6s)-6-((4-(2-aminopropan-2-yl)-6-(4-fluorophenyl)pyridin-2-yl)oxy)-3-azabicyclo[3.1.0]hexan-3-yl)(1-methyl-3-(2-methylthiazol-4-yl)-1H-pyrazol-5-yl)methanone], the EC50 (RSV-A2-GFP virus; [3]) was less than 10 nM and the EC50 (hMPV-GFP virus; [4]) was greater than 100 nM.
`Cn1nc(-c2cscn2)c(F)c1C(=O)N1C[C@@H]2[C@H](C1)[C@H]2Oc1cc(C(C)(C)N)cc(-c2ccc(F)cc2)n1` [Example 25, ((1R,5S,6s)-6-((4-(2-aminopropan-2-yl)-6-(4-fluorophenyl)pyridin-2-yl)oxy)-3-azabicyclo[3.1.0]hexan-3-yl)(4-fluoro-1-methyl-3-(thiazol-4-yl)-1H-pyrazol-5-yl)methanone] gave an EC50 (RSV-A2-GFP virus; [1]) of less than 10 nM and an EC50 (hMPV-GFP virus; [2]) of 10 to 100 nM.
With `Cn1nc(-c2ncco2)c(F)c1C(=O)N1C[C@@H]2[C@H](C1)[C@H]2Oc1cc(C(C)(C)N)cc(-c2ccc(F)cc2)n1` [Example 26, ((1R,5S,6s)-6-((4-(2-aminopropan-2-yl)-6-(4-fluorophenyl)pyridin-2-yl)oxy)-3-azabicyclo[3.1.0]hexan-3-yl)(4-fluoro-1-methyl-3-(oxazol-2-yl)-1H-pyrazol-5-yl)methanone] the EC50 (RSV-A2-GFP virus; [3]) was less than 10 nM and the EC50 (hMPV-GFP virus; [4]) was greater than 100 nM.
Work on `CC(C)(N)c1cc(O[C@H]2[C@@H]3CN(C(=O)c4nc(-c5cscn5)ns4)C[C@@H]32)nc(-c2ccc(F)cc2)c1` [Example 27, ((1R,5S,6s)-6-((4-(2-aminopropan-2-yl)-6-(4-fluorophenyl)pyridin-2-yl)oxy)-3-azabicyclo[3.1.0]hexan-3-yl)(3-(thiazol-4-yl)-1,2,4-thiadiazol-5-yl)methanone] yielded an EC50 (RSV-A2-GFP virus; [3]) of 10 to 100 nM and an EC50 (hMPV-GFP virus; [4]) greater than 100 nM.
Work on `Cc1nn(-c2cscn2)cc1C(=O)N1C[C@@H]2[C@H](C1)[C@H]2Oc1cc(C(C)(C)N)cc(-c2ccc(F)cc2)n1` [Example 28, ((1R,5S,6s)-6-((4-(2-aminopropan-2-yl)-6-(4-fluorophenyl)pyridin-2-yl)oxy)-3-azabicyclo[3.1.0]hexan-3-yl)(3-methyl-1-(thiazol-4-yl)-1H-pyrazol-4-yl)methanone] yielded an EC50 (RSV-A2-GFP virus; [3]) of less than 10 nM and an EC50 (hMPV-GFP virus; [4]) greater than 100 nM.
`CC(C)(N)c1cc(O[C@H]2[C@@H]3CN(C(=O)c4cc(-c5cscn5)ns4)C[C@@H]32)nc(-c2ccc(F)cc2)c1` [Example 29, ((1R,5S,6s)-6-((4-(2-aminopropan-2-yl)-6-(4-fluorophenyl)pyridin-2-yl)oxy)-3-azabicyclo[3.1.0]hexan-3-yl)(3-(thiazol-4-yl)isothiazol-5-yl)methanone] was tested, and the EC50 (RSV-A2-GFP virus; [3]) was less than 10 nM and the EC50 (hMPV-GFP virus; [4]) was greater than 100 nM.
Work on `Cn1nc(-c2cscn2)nc1C(=O)N1C[C@@H]2[C@H](C1)[C@H]2Oc1cc(C(C)(C)N)cc(-c2ccc(F)cc2)n1` [Example 30, ((1R,5S,6s)-6-((4-(2-aminopropan-2-yl)-6-(4-fluorophenyl)pyridin-2-yl)oxy)-3-azabicyclo[3.1.0]hexan-3-yl)(1-methyl-3-(thiazol-4-yl)-1H-1,2,4-triazol-5-yl)methanone] yielded an EC50 (RSV-A2-GFP virus; [3]) of less than 10 nM and an EC50 (hMPV-GFP virus; [4]) greater than 100 nM.
For `Cc1nc(-c2ncco2)sc1C(=O)N1C[C@@H]2[C@H](C1)[C@H]2Oc1cc(C(C)(C)N)cc(-c2ccc(F)cc2F)n1` [Example 31, ((1R,5S,6s)-6-((4-(2-aminopropan-2-yl)-6-(2,4-difluorophenyl)pyridin-2-yl)oxy)-3-azabicyclo[3.1.0]hexan-3-yl)(4-methyl-2-(oxazol-2-yl)thiazol-5-yl)], the EC50 (RSV-A2-GFP virus; [1]) was less than 10 nM and the EC50 (hMPV-GFP virus; [2]) was 10 to 100 nM.
With `Cc1nc(-c2ccon2)sc1C(=O)N1C[C@@H]2[C@H](C1)[C@H]2Oc1cc(C(C)(C)N)cc(-c2ccc(F)cc2F)n1` [Example 32, ((1R,5S,6s)-6-((4-(2-aminopropan-2-yl)-6-(2,4-difluorophenyl)pyridin-2-yl)oxy)-3-azabicyclo[3.1.0]hexan-3-yl)(2-(isoxazol-3-yl)-4-methylthiazol-5-yl)methanone] the EC50 (RSV-A2-GFP virus; [3]) was less than 10 nM and the EC50 (hMPV-GFP virus; [4]) was greater than 100 nM.
For `Cc1nc(-c2cscn2)sc1C(=O)N1C[C@@H]2[C@H](C1)[C@H]2Oc1cc(C(C)(C)N)cc(-c2ccc(F)cc2F)n1` [Example 33, ((1R,5S,6s)-6-((4-(2-aminopropan-2-yl)-6-(2,4-difluorophenyl)pyridin-2-yl)oxy)-3-azabicyclo[3.1.0]hexan-3-yl)(4-methyl-[2,4′-bithiazol]-5-yl)methanone], the EC50 (RSV-A2-GFP virus; [3]) was less than 10 nM and the EC50 (hMPV-GFP virus; [4]) was greater than 100 nM.
With `CC(C)(N)c1cc(O[C@H]2[C@@H]3CN(C(=O)c4sc(-c5cscn5)nc4C4CC4)C[C@@H]32)nc(-c2ccc(F)cc2F)c1` [Example 34, ((1R,5S,6s)-6-((4-(2-aminopropan-2-yl)-6-(2,4-difluorophenyl)pyridin-2-yl)oxy)-3-azabicyclo[3.1.0]hexan-3-yl)(4-cyclopropyl-[2,4′-bithiazol]-5-yl)methanone] the EC50 (RSV-A2-GFP virus; [3]) was less than 10 nM and the EC50 (hMPV-GFP virus; [4]) was 10 to 100 nM.
`Cn1nc(-c2ncco2)cc1C(=O)N1C[C@@H]2[C@H](C1)[C@H]2Oc1cc(C(C)(C)N)cc(-c2ccc3c(c2)CC3(F)F)n1` [Example 35, ((1R,5S,6s)-6-((4-(2-aminopropan-2-yl)-6-(7,7-difluorobicyclo[4.2.0]octa-1(6),2,4-trien-3-yl)pyridin-2-yl)oxy)-3-azabicyclo[3.1.0]hexan-3-yl)(1-methyl-3-(oxazol-2-yl)-1H-pyrazol-5-yl)methanone] showed an EC50 (RSV-A2-GFP virus; [3]) of less than 10 nM and an EC50 (hMPV-GFP virus; [4]) greater than 100 nM.
Compound `Cn1nc(-c2ccon2)cc1C(=O)N1C[C@@H]2[C@H](C1)[C@H]2Oc1cc(C(C)(C)N)cc(-c2ccc3c(c2)CC3(F)F)n1` [Example 36, ((1R,5S,6s)-6-((4-(2-aminopropan-2-yl)-6-(7,7-difluorobicyclo[4.2.0]octa-1(6),2,4-trien-3-yl)pyridin-2-yl)oxy)-3-azabicyclo[3.1.0]hexan-3-yl)(3-(isoxazol-3-yl)-1-methyl-1H-pyrazol-5-yl)methanone] has an EC50 (RSV-A2-GFP virus; [3]) of less than 10 nM and an EC50 (hMPV-GFP virus; [4]) greater than 100 nM.
